Test results published in patent US20260133193A1, “COMPOSITIONS AND METHODS FOR TREATING INFLAMMATORY DISEASES” (University of Washington, priority 2018, published 2026).
“Also recorded” adds a separate entry of the source.

Legend:
Type in all cases: cell-based, human
[1] = tested on: FcgRIIA on neutrophils; test: FcgRIIA shedding, flow cytometry of neutrophil cell surface FcgRs; conditions: flow cytometry
Description: To determine the mechanism for the TLR-induced reduction in RNP-IC phagocytosis, we analyzed the neutrophil surface expression of FcgRs after exposure to TLR ligand. Neutrophils were activated with R848 and cell surface expression of FcgRs analyzed by flow cytometry. The results were presented as FcgR levels as compared to no R848 added (% of control). The experiment was repeated five (FcgRI), seven (FcgRIII), and twenty-five (FcgRIIA) times; combined results were compared using paired t test (FcgRIIA, P<0.0001; FcgRI, P=0.027; FcgRIII, P=0.0044). […] In this experiment, neutrophils were activated with the TLR7/8 agonist R848 and analyzed for FcgRIIA at different time-points and concentrations. The experiment was repeated four (concentration) and six (kinetics) times; combined results were compared using paired t test (30 min, P=0.0158; 60 min, P<0.0001; 120 min, P=0.0003; 0.125 μg/mL, P=0.0071; 0.25 μg/mL, P=0.0058; 0.5 μg/mL, P=0.0008; 1 μg/mL, P<0.0001; 2 μg/mL, P<0.0001). […] For these experiments, neutrophils were activated with TLR ligands (LPS, 1 μg/mL, PAM3CSK4 (5 μg/mL), CpG DNA (2 μg/mL), Loxoribine (0.1 mM), CL075 (2.5 μg/mL) or R848 (2 μg/mL)) for 60 minutes or 4 hours and analyzed for FcgRIIA, FcgRII or CD11b and CD66b cell surface expression by flow cytometry. Experiments were repeated six (LPS, P=0.0008), eight (CpG DNA, P=0.035; Loxoribine, P<0.0001, and CL075, P<0.0001), ten (PAM3CSK4, P<0.0001) and forty times (R848, P<0.0001); combined results were compared using paired t test. Additional experiments were repeated four and eight times; combined results were compared using paired t test (CD11b: R848, P<0.0001; LPS, P=0.0002; PAM, P<0.0001; CpG DNA, P<0.0001; CD66b: R848, P<0.0001; LPS, P<0.0001; PAM, P<0.0001; CpG DNA, P=0.014).
Neutrophils were activated by LPS (1 μg/mL), R848 (2 μg/mL), PAM3CSK4 (5 μg/mL), Loxoribine (0.1 mM), CL075 (2.5 μg/mL) or CpG DNA (2 μg/mL) for 30 minutes, followed by analysis of cell surface expression of CD32A (IV.3; Stemcell Technologies, FUN-2, BioLegend), CD16 (clone 3G8), CD64 (clone 10.1), and CD66b (all from BioLegend) by flow cytometry. For intracellular staining, neutrophils were fixed in 2% paraformaldehyde for 10 minutes, permeabilized with saponin (diluted 1:1000 in PBS) for 15 minutes and stained with anti-CD32A antibodies diluted 1:100. In some experiments, neutrophils were incubated with inhibitors (DPI (25 μM, Sigma), apocynin (100 μM, Sigma), GM-6001 (10 μM, Enzo Life Sciences), LY294002 (10 μM), cOmplete Protease Inhibitor Cocktail Tablets (1× dissolved in H2O, Roche), neutrophil elastase IV inhibitor (25 μM, Calbiochem), E-64 (1 μM, Sigma), 4-(2-Aminoethyl)benzenesulfonyl fluoride hydrochloride (AEBSF, 0.1 mM, Sigma), CMK (25 μM, Enzo Life Sciences), cytochalasin B (5 μM, Sigma) or chymostatin (10 μg/mL, Sigma)) or recombinant furin (100 ng/mL, maximal dose tolerated by the neutrophils, Peprotech) 30 minutes prior to addition of stimuli. In some experiments cell surface levels of B cell activating factor (BAFF, Biolegend) was analyzed according to the same protocol as described above. Monocytes and pDCs were detected using antibodies to CD14 (BioLegend) and CD304 (Miltenyi Biotech), respectively.

[2] = tested on: neutrophils; test: ROS analysis in neutrophils (DHR123, OxyBURST); conditions: flow cytometry and fluorimetry, cell impermeable ROS dye
[3] = tested on: FcgRIIA on neutrophils; test: FcgRIIA shedding, fluorimetry of shed antibody-FcgRIIA complexes in supernatant; conditions: pre-labeled neutrophils, R848 stimulation
Protocol: To assess if reduction in FcgRIIA cell surface expression was dependent on proteolytic cleavage or internalization of the receptor, we analyzed total FcgRIIA expression in fixed permeabilized neutrophils. Specifically, neutrophils were activated with R848 and FcgRIIA levels analyzed in permeabilized cells by flow cytometry. The experiment was repeated five times and compared using paired t test (P=0.0075). […] Specifically, FcgRIIA cell surface expression was analyzed by flow cytometry using two antibodies, FUN2 and IV.3, in non-stimulated and R848-stimulated neutrophils. The experiment was repeated six times; combined results were compared using paired t test (P<0.0001). […] For this experiment, neutrophils were labeled with FITC-conjugated IV.3 anti-FcgRIIA or anti-FUN-2 antibodies and the shed antibody-FcgRIIA complex quantified by fluorimetry following R848 stimulation with or without prior addition of a pan-protease inhibitor. […]
For detection of shed FcgRIIA, neutrophils were pre-labeled with FITC-conjugated anti-CD32A antibody IV.3 (Stemcell Technologies) or FITC-conjugated anti-CD32A antibody FUN-2 (Biolegend), and washed extensively prior to activation with R848. Cell free supernatant was analyzed for shed FcgRIIA-anti-CD32A-FITC complexes by flourimetry (Synergy 2, BioTek) using anti-CD32A antibodies as a standard curve. […]

[4] = tested on: monocytes; test: Monocyte phagocytosis of RNP-ICs; conditions: RNase exposure or R848 priming
Protocol: Monocytes were incubated with R848 or neutrophil supernatant prior to addition of RNP-ICs or beads. Phagocytosis was determined by flow cytometry.
SLE IgG, SmRNP and heat-aggregated IgG (HAGG) were labeled with Alexa-647 according to manufacturer's protocol (Life Technologies). Neutrophils, or PBMCs, from healthy individual were stimulated with different ICs, FITC-conjugated latex beads or zymosan (100 μg/mL, Life Technologies) for 30 minutes at 37° C. and immediately analyzed for phagocytosis. […] In some experiments, R848, at a concentration of 2 μg/mL, or neutrophil supernatant, was added 30 and 90 minutes before addition of the phagocytic stimuli, respectively.
Plasmacytoid dendritic cells were identified based on their expression of BDCA-4 (Miltenyi Biotech) and monocytes based on their expression of CD14 (Biolegend). In some experiments neutrophil supernatant (generated by incubating neutrophils with R848 for 90 minutes) were added to PBMCs with or without presence of the pan-protease inhibitor (1×), and expression of FcgRs and phagocytic ability analyzed in monocytes by flow cytometry as described above.

## CCOCc1nc2c(N)nc3ccccc3c2n1CC(C)(C)O [R848]
[1]; clone IV.3, vs non-stimulated
  neutrophil cell surface expression of FcgRIIA after stimulus: significantly reduced; also recorded: time- and dose-dependent
[1]; vs no R848
  neutrophil surface levels of FcgRIIIB and FcgRI after stimulus: increased
[2]
  cellular localization of ROS generation: induced intracellular generation of ROS, but no detectable extracellular ROS
[3]
  cell-free FcgRIIA-IV.3 (anti-CD32A) complexes in supernatant: detected in increased amounts in the cell-free supernatant
[4]
  monocyte phagocytosis of RNP-ICs: not affected
